TGI and GI50 data for 11 compounds are collected here from PubChem BioAssay (NCI).

Where “and” joins values, the source holds several entries; their conditions need not be identical. Identical values can stand only once.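 Method: 48-hour compound exposure of cells in 96-well plates, five concentrations, linear interpolation of endpoints. GI50: concentration for 50% inhibition of growth. At the TGI there is no net growth.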 Where only a bound is given, the exact number is not on record here.

Test systems include K-562 leukemia; ACHN renal; IGROV1 ovarian; NCI-H226 lung; SK-MEL-2 melanoma; EKVX NSCLC; SF-539 CNS; M14 melanoma; UO-31 renal; RPMI-8226 leukemia.
Holding throughout (test): NCI-60 cell line screen, 48 h

For `COC(=O)c1ccc(C(=O)OC)c2nc3cc(C)ccc3nc12`, the TGI in the test with K-562 leukemia, in the test on ACHN renal, in the test on IGROV1 ovarian, in the test with NCI-H226 lung, with SK-MEL-2 melanoma and with EKVX NSCLC was greater than 100 µM throughout. In addition, the TGI in the test with SF-539 CNS, in the test on M14 melanoma, with UO-31 renal and in the test on RPMI-8226 leukemia was greater than 100 µM each time.

On to `COc1cc2c(c(OC)c1OC)-c1ccc(O)c(=O)cc1[C@@H](NC(C)=O)CC2`, for which the GI50 with K-562 leukemia was 6.91 µM; in the test with ACHN renal, 5.61 µM; in the test with IGROV1 ovarian, 4.76 µM; in the test on NCI-H226 lung, 10.5 µM; in the test with SK-MEL-2 melanoma, 20 µM; with SF-539 CNS it was 6.08 µM. Further, the GI50 was 9.54 µM in the test with M14 melanoma, 4.42 µM in the test on UO-31 renal and 8.15 µM with RPMI-8226 leukemia. Besides, the TGI with K-562 leukemia is greater than 100 µM; in the test with ACHN renal, > 100 µM and 44.5 µM; in the test on IGROV1 ovarian, > 100 µM and 82.4 µM; with NCI-H226 lung, 80 µM and 44 µM; in the test with SK-MEL-2 melanoma it was greater than 100 µM; with EKVX NSCLC, greater than 100 µM. Besides, the TGI in the test with SF-539 CNS was 45.5 µM and 44 µM; in the test with M14 melanoma it was 60.7 µM and 78.2 µM; in the test with UO-31 renal, 63.8 µM and 89 µM; with RPMI-8226 leukemia, > 100 µM and 36.9 µM.

Regarding `CCN(CC)CCOc1c(OC)c(Br)cc2c(C)c(C(=O)OC)oc12`, the GI50 in the test on K-562 leukemia was 0.332 µM; in the test on ACHN renal it was 0.899 µM; in the test with IGROV1 ovarian, 1.4 µM; with NCI-H226 lung it was 1.16 µM; in the test on SK-MEL-2 melanoma it was 3.17 µM; in the test with EKVX NSCLC, 1.55 µM. Further, the GI50 with SF-539 CNS was 1.47 µM; with M14 melanoma it was 1.18 µM; in the test on UO-31 renal, 3.19 µM; in the test with RPMI-8226 leukemia, 0.186 µM. The TGI is 2.09 µM in the test on K-562 leukemia; 2.08 µM with ACHN renal; 7.05 µM with IGROV1 ovarian; 3.39 µM in the test on NCI-H226 lung; 50 µM in the test on SK-MEL-2 melanoma; 5.01 µM with EKVX NSCLC. Besides, the TGI with SF-539 CNS came out at 3.15 µM; in the test on M14 melanoma, 4.4 µM; in the test with UO-31 renal it was 50 µM; in the test on RPMI-8226 leukemia, 0.834 µM.

As to `COC(=O)[C@H]1[C@H]2C[C@@H]3c4[nH]c5cc(OC)ccc5c4CCN3C[C@H]2C[C@@H](OC(=O)/C=C/c2cc(OC)c(OC)c(OC)c2)[C@@H]1OC`, the GI50 with K-562 leukemia is 3.24 µM; in the test on ACHN renal, 4.05 µM; in the test with IGROV1 ovarian, 6.72 µM; with NCI-H226 lung, 26.7 µM; in the test on SK-MEL-2 melanoma, 5.73 µM; in the test on EKVX NSCLC, 14.1 µM. Moreover, the GI50 in the test on SF-539 CNS is 12.5 µM; in the test on M14 melanoma it was 6.24 µM; in the test with UO-31 renal, 9.63 µM; with RPMI-8226 leukemia, 4.05 µM. The TGI is 38.4 µM in the test on K-562 leukemia; 21.5 µM in the test with ACHN renal; 34.6 µM with IGROV1 ovarian; greater than 100 µM in the test with NCI-H226 lung; 19.8 µM with SK-MEL-2 melanoma; greater than 100 µM with EKVX NSCLC. Further, the TGI in the test with SF-539 CNS turned out to be 25.4 µM; in the test on M14 melanoma, 20 µM; with UO-31 renal, 33.5 µM; in the test with RPMI-8226 leukemia it was 85.1 µM.

Turning to `Cc1c(C(=O)CC(=O)C(=O)Nc2cc(Cl)ccc2Cl)[n+](=O)c2ccccc2n1[O-]`, the TGI with K-562 leukemia, in the test on ACHN renal, in the test on IGROV1 ovarian, in the test on NCI-H226 lung, with SK-MEL-2 melanoma and with EKVX NSCLC was greater than 100 µM each time. Moreover, the TGI in the test on SF-539 CNS is greater than 100 µM; in the test with M14 melanoma, 64.4 µM; in the test with UO-31 renal, greater than 100 µM; in the test with RPMI-8226 leukemia, 57.8 µM.

As to `COC(=O)[C@H]1N[C@@H](C(=O)OC)C23CCC[C@H]2CC[C@]1(C(OC)OC)C3`, the TGI with K-562 leukemia, in the test on ACHN renal, in the test on IGROV1 ovarian, in the test on NCI-H226 lung, in the test with SK-MEL-2 melanoma and in the test with EKVX NSCLC was greater than 100 µM in each case. Also, the TGI with SF-539 CNS, in the test on M14 melanoma, with UO-31 renal and in the test on RPMI-8226 leukemia was greater than 100 µM each time.

For the compound `Clc1ccc2c(c1)[nH]c1c2nc2sccn21`, the TGI with K-562 leukemia, with ACHN renal, in the test with IGROV1 ovarian, in the test on NCI-H226 lung, with SK-MEL-2 melanoma and with EKVX NSCLC was greater than 100 µM in each case. Further, the TGI in the test with SF-539 CNS, in the test with M14 melanoma, in the test with UO-31 renal and with RPMI-8226 leukemia was greater than 100 µM throughout.

Regarding `CC1(O)CCC2(C)C(=O)C1(C)CCC21OCCO1` (centres undefined), the TGI in the test with K-562 leukemia, with ACHN renal, in the test on IGROV1 ovarian, with NCI-H226 lung, in the test on SK-MEL-2 melanoma and with EKVX NSCLC was greater than 100 µM in each case. Besides, the TGI with SF-539 CNS, with M14 melanoma, in the test with UO-31 renal and with RPMI-8226 leukemia was greater than 100 µM each time.

For the compound `NC(=O)c1csc(C2CCC(CO)O2)n1` (centres undefined), the TGI in the test on K-562 leukemia, in the test with ACHN renal, in the test with IGROV1 ovarian, in the test on NCI-H226 lung, in the test on SK-MEL-2 melanoma and in the test on EKVX NSCLC was greater than 100 µM throughout. In addition, the TGI with SF-539 CNS, in the test on M14 melanoma, in the test on UO-31 renal and with RPMI-8226 leukemia was greater than 100 µM throughout.

For the compound `Nc1nc(N)nc(CC(=O)O)n1`, the TGI in the test on K-562 leukemia, with ACHN renal, in the test with IGROV1 ovarian, in the test on NCI-H226 lung, in the test on SK-MEL-2 melanoma and in the test with EKVX NSCLC was greater than 100 µM throughout. The TGI with SF-539 CNS, in the test on M14 melanoma, with UO-31 renal and in the test with RPMI-8226 leukemia was greater than 100 µM in each case.

On to `ClCc1ccc(C2OCCO2)cc1`, for which the TGI with K-562 leukemia is greater than 31.6 µM; with ACHN renal it was greater than 62 µM; with IGROV1 ovarian, greater than 100 µM; in the test with NCI-H226 lung, 40.1 µM; in the test with SK-MEL-2 melanoma, 42.2 µM; with EKVX NSCLC, greater than 63 µM. In addition, the TGI with SF-539 CNS is greater than 56.7 µM; in the test with M14 melanoma it was 34.3 µM; in the test with UO-31 renal, greater than 56.2 µM; with RPMI-8226 leukemia it was 74.6 µM.
